Reference: patent publication US20170172955A1, “Treatment of Mixed Dyslipidemia” (priority 2015, published 2017)
Read-outs that look alike come from different tables or passages of the source.

How the values were obtained:
CYP1A2 = CYP1A2 (Homo sapiens, UniProt P05177); assay: biochemical
Description: (§1) Human livers, HLM141, HLM143, and HLM144 were selected from the University of Washington Human Liver Bank for this study. […] The actual concentrations used for each of the other probes are specified below. […] The seven isoforms and the metabolic pathway of each of the probes used to monitor specific isoform activity are listed below.
CYP1A2: The 6-hydroxylation of high concentrations (0.5 mM) of (R)-warfarin. The reaction is monitored by quantitative gas chromatographic/mass spectrometric (GC/MS) using 6-hydroxywarfarin-(d5-phenyl) as the internal standard.

CYP2E1 = CYP2E1 (Homo sapiens, UniProt P05181); assay: biochemical
Description: as §1
CYP2E1: The formation of p-nitrocatechol from p-nitrophenol (40 μM). Amounts of product formed are monitored by HPLC.

primary rat hepatocytes = assay: Cholesterol and triglyceride synthesis ([14C]acetate) in primary rat hepatocyte cultures; format: cell-based; conditions: for % Change in Synthesis, Cholesterol ± SEM / % Change in Synthesis, Triglyceride ± SEM: relative to vehicle cells
Description: At end of labeling period, cells were washed with room temperature D-PBS, 2.0 mL per well and the reaction is stopped with 1.0 mL 0.75 N HCl. Cells were scraped and transferred to 15×45 mm glass vial (1 dram size). Wells were washed with 1.0 mL of methanol and added to scraped cells, followed by the addition of 2.0 mL of chloroform. Vials were capped and vortexed for 5 seconds and centrifuged in a Beckman GS 6KR centrifuge at 3,600 rpm for 15 minutes at room temperature to separate phases. The bottom chloroform phase was transferred to new 15×45 mm glass vial, dried down in a […] evaporator at 37° C. under nitrogen gas. Vials were cooled to room temperature and samples resuspended in 130 μL of n-heptane:chloroform, 4:1 by vortexing for 5 seconds. […] Plates were dried for 30 minutes in an 80° C. gravity convection oven, cooled to room temperature, and wrapped in SaranTM Wrap. Plates were exposed overnight to phosphorimager plates, scanned on Typhoon PhosporImager (Molecular Dynamics), and analyzed using Imagequant software (Molecular Dynamics).

[1] = tested on: cholesterol and triglyceride synthesis; assay: Inhibition of plasma and hepatic cholesterol and triglyceride synthesis in apoB100/Lp(a) mice; format: in vivo, mouse
Description: The apoB100/Lp(a) (cross of mice transgenic for human apoB100 and human apo(a)) mice) were obtained from Charles River. There were 8 animals per treatment group. […] Mice were acclimated for a minimum of 7 days to a reverse 12 hour light/12 hour dark cycle prior to administration of the first dose of test drug or vehicle. […] Test drugs and vehicle were given once daily. Thirty minutes after the eighth dose, 12.5 μCi [^14C] sodium acetate was administered. […] Individual plasma samples were acquired by placing whole blood samples into EDTA loaded centrifuge tubes and centrifuged. Plasma was transferred to new tubes and stored at −20° C. until assayed for [^14C] labeled cholesterol. Liver samples were flash frozen in liquid nitrogen and stored at −80° C. until assayed for [^14C] labeled cholesterol and triglycerides. Assay for plasma [^14C] labeled cholesterol. […] Additionally, 0.025 μCi […] (Perkin Elmer Life Sciences Inc. Boston, Mass.) was added to each sample, and to 2 or 3 spike controls in 7-mL scintillation vials, as an extraction internal standard. […] Samples were vortexed and saponified at 75° C. for 1 hour. After the samples cooled […] [^14C] labeled cholesterol was extracted with 2.5 mL petroleum ether per sample and shaken for 10 minutes, and then centrifuged for 10 minutes at 0° C. […] Each sample was then dissolved in 0.25 mL of 2 parts chloroform to 1 part per methanol by sonication. Five mL scintillant was added to each sample and the spike controls for direct [^3H] and [^14C] […] per minute (DPM) recording using a Packard 2500TR Tri-Carb Liquid Scintillation Analyzer. […] Assay for liver [^14C] labeled cholesterol and triglycerides. Frozen liver samples were kept on dry ice during sample weighing procedures and assay preparations. Each sample was homogenized in a solution of ice-cold methanol;0.5 N acetic acid. […] Samples were then vortexed and centrifuged for 20 minutes at 3000 rpm at room temperature to separate the phases. The lower chloroform layer was transferred to new vials. The remaining upper aqueous phase was extracted in like manner with 15 mL chloroform 2 more times. […] The aqueous phase was discarded and the chloroform phase was washed 2 times in like manner with 15 mL 1 part methanol to 1 part water, discarding the aqueous phase. The chloroform samples were evaporated under nitrogen gas, and resuspended in 600 μL chloroform and 30 μL removed for scintillation counting. Sample volumes were adjusted for corrected percent recovery and a calculated volume to load based on total liver weight. Calculated volumes were spotted onto TLC plates and dried in an 80° C. oven. After the plates had cooled to room temperature, they were developed in 102 mL isooctane:diethyl ether:glacial acetic acid, 75:25:2, respectively. Plates were dried in an 80° C. oven and allowed to cool to room temperature, wrapped in plastic wrap, and exposed to the phosphorimager screen. Imagequant software was used to quantitate cholesterol and triglyceride bands.

fibrinogen = assay: Fibrinogen levels in humans, post hoc analysis of study A4141001; format: in vivo, human; design: Mean Final FIBR / Mean Change FIBR: unit not given here; conditions: for Change in Fibrinogen, Difference (Gem - Placebo): MITT; for Fibrinogen Change, Difference (Gem-placebo) / Mean % Change FIBR / Mean Change FIBR / Mean Final FIBR / Fibrinogen Change, LS Mean (SE): subjects with fibrinogen baseline >400 mg/dL
Description: Week 0) and the end (Visit T8, Week 8). Analyses of covariance (ANCOVA) methods used in the original study A4141001 were again utilized in these analyses. For fibrinogen, baseline was defined as the last pretreatment visit, and endpoint was the last visit up to and including the day after last dose of medication. The least-squares means and p-values for change from baseline in fibrinogen were calculated using an ANCOVA model with the effects of baseline lipid value and treatment. Also, medians and p-values for percent change from baseline. […] This, consequently, was the definition for the modified intent-to treat (MITT) population.

[2] = Musculoskeletal adverse events, study A4141001
[3] = 100 mg/kg oral once daily, 8 doses
[4] = study A4141001, patient type IIa
[5] = study A4141001, patient type IIa + IIb
[6] = study A4141001, patient type IIb

Sequence of CYP2E1 (P05181 whole entry): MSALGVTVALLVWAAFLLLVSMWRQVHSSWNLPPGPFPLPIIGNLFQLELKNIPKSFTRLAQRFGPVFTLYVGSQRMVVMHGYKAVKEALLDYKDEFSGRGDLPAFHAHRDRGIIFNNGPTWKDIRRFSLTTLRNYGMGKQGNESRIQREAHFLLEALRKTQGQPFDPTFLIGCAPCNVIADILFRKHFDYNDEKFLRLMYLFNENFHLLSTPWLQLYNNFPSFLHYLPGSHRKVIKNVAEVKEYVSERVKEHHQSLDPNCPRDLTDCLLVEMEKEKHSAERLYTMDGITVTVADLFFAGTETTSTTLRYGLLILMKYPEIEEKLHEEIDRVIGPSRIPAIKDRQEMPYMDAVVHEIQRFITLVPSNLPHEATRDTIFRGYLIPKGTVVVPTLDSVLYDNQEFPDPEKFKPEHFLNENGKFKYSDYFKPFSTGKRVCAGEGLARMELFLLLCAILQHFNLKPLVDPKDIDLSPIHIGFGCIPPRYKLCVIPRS
Sequence of CYP1A2 (P05177 whole entry, canonical isoform): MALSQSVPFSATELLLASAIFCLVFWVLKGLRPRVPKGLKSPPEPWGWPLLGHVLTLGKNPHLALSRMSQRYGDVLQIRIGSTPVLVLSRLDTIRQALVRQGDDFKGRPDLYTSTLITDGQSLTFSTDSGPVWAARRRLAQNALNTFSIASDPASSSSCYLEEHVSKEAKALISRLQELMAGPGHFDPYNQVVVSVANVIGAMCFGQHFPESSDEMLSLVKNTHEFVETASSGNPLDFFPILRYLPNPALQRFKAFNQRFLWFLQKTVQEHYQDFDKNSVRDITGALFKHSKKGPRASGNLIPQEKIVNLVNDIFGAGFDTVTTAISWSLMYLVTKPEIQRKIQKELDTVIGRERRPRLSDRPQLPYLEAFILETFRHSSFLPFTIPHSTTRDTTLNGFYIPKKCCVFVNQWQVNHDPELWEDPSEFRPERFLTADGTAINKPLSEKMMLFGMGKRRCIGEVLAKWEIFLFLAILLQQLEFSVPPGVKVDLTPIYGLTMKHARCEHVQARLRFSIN

CC(C)(CCCCOCCCCC(C)(C)C(=O)O)C(=O)O [Gemcabene, 6,6′-oxybis(2,2-dimethylhexanoic acid)]
IC50 (CYP1A2): > 1.5 mM
IC50 (CYP1A2; human, microsomes): > 1.5 mM
IC50 (CYP2E1): > 1.5 mM
activity slightly enhanced (CYP2E1; human, 1500 μM): about 20%
IC50 (CYP2E1; human, microsomes): > 1.5 mM
decrease of cholesterol synthesis (± SEM) (primary rat hepatocytes; 10 μM): 61.5±1.8%
reduction of triglyceride synthesis (primary rat hepatocytes; 10 μM): 8.9±4.5%
% Change in Synthesis, Cholesterol ± SEM (primary rat hepatocytes; 10 μM): −61.5 ± 1.8%
% Change in Synthesis, Triglyceride ± SEM (primary rat hepatocytes; 10 μM): −8.9 ± 45%^ns
decrease of cholesterol synthesis (± SEM) (primary rat hepatocytes; 30 μM): 90.0±0.8%
reduction of triglyceride synthesis (primary rat hepatocytes; 30 μM): 72.1±2.9%
% Change in Synthesis, Cholesterol ± SEM (primary rat hepatocytes; 30 μM): −90.0 ± 0.8%
% Change in Synthesis, Triglyceride ± SEM (primary rat hepatocytes; 30 μM): −72.1 ± 2.9%
inhibition of cholesterol synthesis as measured in plasma ([1]; 100 mg/kg): 60%
inhibition of newly synthesized cholesterol in liver tissue ([1]; 100 mg/kg): 65%
inhibition of newly synthesized triglycerides in liver tissue ([1]; 100 mg/kg): 66%
hepatic Cholesterol synthesis ([14C] sodium acetate), % Change from Vehicle [1, 3]: −65 ± 11 %
hepatic Triglycerides synthesis ([14C] sodium acetate), % Change from Vehicle [1, 3]: −66 ± 6 %
Change in Fibrinogen, Difference (Gem - Placebo) (fibrinogen; gemcabene 300 mg): −13.0
Change in Fibrinogen, Difference (Gem - Placebo) (fibrinogen; gemcabene 600 mg): −13.6
Change in Fibrinogen, Difference (Gem - Placebo) (fibrinogen; gemcabene 900 mg): −24.3
Fibrinogen Change, Difference (Gem-placebo) (fibrinogen; gemcabene 300 mg): 5.0
Mean % Change FIBR (fibrinogen; gemcabene 300 mg): 6.7%
Mean Change FIBR (fibrinogen; gemcabene 300 mg): 26.6
Mean Final FIBR (fibrinogen; gemcabene 300 mg): 454.4
Fibrinogen Change, LS Mean (SE) (fibrinogen; gemcabene 300 mg monotherapy): 26.0 (29.3)
Fibrinogen Change, Difference (Gem-placebo) (fibrinogen; gemcabene 600 mg): −62.5
Mean % Change FIBR (fibrinogen; gemcabene 600 mg): −9.3%
Mean Change FIBR (fibrinogen; gemcabene 600 mg): −41.4
Mean Final FIBR (fibrinogen; gemcabene 600 mg): 411.0
Fibrinogen Change, LS Mean (SE) (fibrinogen; gemcabene 600 mg monotherapy): −41.5 (28.9)
Fibrinogen Change, Difference (Gem-placebo) (fibrinogen; gemcabene 900 mg): −34.0
Mean % Change FIBR (fibrinogen; gemcabene 900 mg): −3.2%
Mean Change FIBR (fibrinogen; gemcabene 900 mg): −12.9
Mean Final FIBR (fibrinogen; gemcabene 900 mg): 435.9
Fibrinogen Change, LS Mean (SE) (fibrinogen; gemcabene 900 mg monotherapy): −13.0 (22.9)
Mean % Change FIBR (fibrinogen; gemcabene at any of the doses): −2.2%
Mean Change FIBR (fibrinogen; gemcabene at any of the doses): −9.8
Mean Final FIBR (fibrinogen; gemcabene at any of the doses): 434.1
% of patients experiencing a musculoskeletal adverse event [2, 4]: 0.0%
No = number of muscle skeletal adverse events [2, 4]: 0
% of patients experiencing a musculoskeletal adverse event [2, 5]: 0.0%
No = number of muscle skeletal adverse events [2, 5]: 0
% of patients experiencing a musculoskeletal adverse event [2, 6]: 0.0%
No = number of muscle skeletal adverse events [2, 6]: 0
